What follows are compounds tested against T1, recombinant human EP-2 receptor (Homo sapiens, UniProt P43116) (assay: In vitro antagonist potency against recombinant human prostaglandin E2 (EP-2) receptor in CHO cells (cAMP)). Settings: CHO cells expressing recombinant human EP-2 receptor, stimulated with PGE2 5 nM; cAMP readout; Ki from IC50 by Cheng-Prusoff; read-out: EP2 Ki.
T1 construct: stably transfected with full length cDNA encoding human Prostaglandin E2; expressed in transfected cells
Assay type: cell-based
Protocol: 1.0 Measurement of In Vitro Antagonist Potency (IC50) of Compounds Against Recombinant Human Prostaglandin E2 Receptor in CHO Cells.
The prostaglandin E2 (EP-2) receptor is Gs coupled and agonism of the receptor by PGE2 results in activation of intracellular adenylate cyclase enzymes that synthesise the second messenger signalling molecule, adenosine 3′,5′-cyclic monophosphate (cAMP). CHO cells expressing the recombinant human EP-2 receptor are stimulated with PGE2 (5 nM) equivalent to approximately […] values to give the maximal cAMP signal. Decreases in cAMP levels following treatment of stimulated recombinant EP-2 cells with potential antagonist compounds were measured and potency (IC50) calculated as follows.
A Chinese hamster ovary (CHO) cell line stably transfected with full length cDNA encoding human Prostaglandin E2 was established using standard molecular biology methods. Test compounds were dissolved in dimethyl sulphoxide (DMSO) at 4 mM. 11 point half log unit increment dilution series of test compound were prepared in DMSO then diluted 1 in 40 in a buffer comprised of phosphate buffered saline (PBS) and 0.05% pluronic F-127 surfactant. Freshly cultured cells at 80-90% confluence were harvested and re-suspended in 90% growth media/10% DMSO. The cells were frozen using a planar freezer and stored in frozen aliquots in cryovials in liquid nitrogen until the day of the experiment. A vial of cells was defrosted in a 37° C. water bath for 2 min, then transferred to 10 ml of Dulbecco's Modified Eagle's Medium (DMEM). The cells were then centrifuged for 5 min at 1000 g and the pellet re-suspended at 1,000,000 cells/ml in DMEM. 5,000 cells (5 ul) were added to 5 ul of the compound dilution series in a 384 well assay plate and pre-incubated for 30 min at 37° C. 5 ul of agonist (15 nM PGE2 in PBS to give 5 nM FAC) was added and plates further incubated for 90 min at 37° C. The relative cAMP concentration in each well was then measured using a β-galactosidase enzyme fragment complementation method purchased in kit form as the Discoverx cAMP II kit from GE Healthcare, UK. […] Sigmoidal curves were fitted to plots of log10 inhibitor concentration vs. percent effect. IC50 estimates were determined as the concentration of test compound giving an effect half way between the bottom and top asymptotes of the sigmoidal dose response curve. Each experiment included an IC50 determination for the literature compound as a standard to track assay consistency and allow fair comparison between values obtained in different experiments. The EC50 of PGE2 is used in combination with the ligand concentration in the assay to determine Ki values for antagonist dose responses using the Cheng-Prusoff equation. Consequently an agonist dose response curve is carried out for each experiment using the same incubation as the antagonist plate.

T1 sequence (P43116 whole entry): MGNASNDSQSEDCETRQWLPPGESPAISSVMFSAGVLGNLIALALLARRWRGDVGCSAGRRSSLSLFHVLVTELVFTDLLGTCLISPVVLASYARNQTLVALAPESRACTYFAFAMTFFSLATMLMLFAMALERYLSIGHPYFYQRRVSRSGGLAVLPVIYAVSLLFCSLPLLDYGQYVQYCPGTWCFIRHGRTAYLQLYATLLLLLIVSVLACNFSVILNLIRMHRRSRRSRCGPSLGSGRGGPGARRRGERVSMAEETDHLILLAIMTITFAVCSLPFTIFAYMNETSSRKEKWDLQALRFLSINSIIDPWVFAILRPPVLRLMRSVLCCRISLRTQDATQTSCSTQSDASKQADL

Ki [nM]	Structure (SMILES)
225	O=C(c1ccccc1)N1CC(Cn2nnc(-c3ccccc3)n2)(C(=O)O)C1 [Example 1, 1-Benzoyl-3-[(5-phenyl-2H-tetrazol-2-yl)methyl]azetidine-3-carboxylic acid]
1.02	O=C(c1ccc(Cl)cc1)N1CC(Cn2nnc(-c3cc(Cl)cc(Cl)c3)n2)(C(=O)O)C1 [Example 10]
74.8	O=C(c1ccc(F)cc1)N1CC(Cn2nnc(-c3ccc(F)cc3)n2)(C(=O)O)C1 [Example 26]
141	O=C(c1ccc(F)cc1)N1CC(Cn2nnc(-c3cccc(Oc4ccccc4)c3)n2)(C(=O)O)C1 [Example 21]
442	COc1ccccc1-c1nnn(CC2(C(=O)O)CN(C(=O)c3ccc(F)cc3)C2)n1 [Example 16]
230	COc1cc(OC)cc(C(=O)N2CC(Cn3nnc(-c4c(F)cccc4F)n3)(C(=O)O)C2)c1 [Example 65]
39.9	O=C(c1ccc(F)cc1)N1CC(Cn2nnc(-c3cccc(Cl)c3Cl)n2)(C(=O)O)C1 [Example 39]
25.2	COc1ccc(C(=O)N2CC(Cn3nnc(-c4ccc(OC)c(OC)c4)n3)(C(=O)O)C2)cc1 [Example 62]
77.8	Cc1ccccc1-c1nnn(CC2(C(=O)O)CN(C(=O)c3ccc(F)cc3)C2)n1 [Example 12]
61.4	O=C(c1ccccc1)N1CC(Cn2nnc(-c3ccc(Cl)s3)n2)(C(=O)O)C1 [Example 50]
14.8	Cc1cccc(-c2nnn(CC3(C(=O)O)CN(C(=O)c4ccc(F)cc4)C3)n2)c1 [Example 17]
733	O=C(c1ccc(F)cc1)N1CC(Cn2nnc(-c3ccccc3C(F)(F)F)n2)(C(=O)O)C1 [Example 15]
1.45	Cc1ccc(-c2nnn(CC3(C(=O)O)CN(C(=O)c4ccc(Cl)cc4)C3)n2)cc1 [Example 4]
1.37	CCc1ccc(-c2nnn(CC3(C(=O)O)CN(C(=O)c4ccc(F)cc4)C3)n2)cc1 [Example 23]
440	CCc1ccccc1NC(=O)N1CC(Cn2nnc(-c3cccc(F)c3)n2)(C(=O)O)C1 [Example 69]
325	O=C(c1ccccc1)N1CC(Cn2nnc(-c3c(F)cccc3F)n2)(C(=O)O)C1 [Example 48]
133	O=C(c1ccc(F)cc1)N1CC(Cn2nnc(-c3cc(C(F)(F)F)cc(C(F)(F)F)c3)n2)(C(=O)O)C1 [Example 44]
87.3	O=C(c1ccc(F)cc1)N1CC(Cn2nnc(-c3ccccc3F)n2)(C(=O)O)C1 [Example 13]
519	O=C(Nc1cccc(F)c1)N1CC(Cn2nnc(-c3ccc(Cl)s3)n2)(C(=O)O)C1 [Example 71]

Ki [nM]	Structure (SMILES)
41.9	COc1ccc(-c2nnn(CC3(C(=O)O)CN(C(=O)c4ccccc4)C3)n2)cc1OC [Example 49]
0.816	CCC(=O)Nc1ccc(-c2nnn(CC3(C(=O)O)CN(C(=O)c4ccc(Cl)cc4)C3)n2)cc1 [Example 7]
2.42	O=C(c1ccc(Cl)cc1)N1CC(Cn2nnc(-c3ccc(Cl)cc3)n2)(C(=O)O)C1 [Example 6]
176	COc1cccc(C(=O)N2CC(Cn3nnc(-c4ccc(C(C)(C)C)cc4)n3)(C(=O)O)C2)c1 [Example 56]
11.6	COc1cccc(-c2nnn(CC3(C(=O)O)CN(C(=O)c4ccc(F)cc4)C3)n2)c1 [Example 20]
13.7	O=C(c1ccc(F)cc1)N1CC(Cn2nnc(-c3cc(F)cc(Cl)c3)n2)(C(=O)O)C1 [Example 43]
10.8	COc1ccc(-c2nnn(CC3(C(=O)O)CN(C(=O)c4ccc(F)cc4)C3)n2)cc1 [Example 28]
32.5	CCOc1ccccc1C(=O)N1CC(Cn2nnc(-c3ccc(C(F)(F)F)cc3)n2)(C(=O)O)C1 [Example 53]
1.64	O=C(c1ccc(Cl)cc1)N1CC(Cn2nnc(-c3ccc(C(F)(F)F)cc3)n2)(C(=O)O)C1 [Example 5]
7.47	O=C(c1ccc(Cl)cc1)N1CC(Cn2nnc(-c3c(F)cccc3F)n2)(C(=O)O)C1 [Example 61]
44.9	COc1cc(OC)cc(C(=O)N2CC(Cn3nnc(-c4ccc(C(F)(F)F)cc4)n3)(C(=O)O)C2)c1 [Example 46, 1-(3,5-Dimethoxybenzoyl)-3-({5-[4-(trifluoromethyl)phenyl]-2H-tetrazol-2-yl}methyl)azetidine-3-carboxylic acid]
27	O=C(c1ccc(F)cc1)N1CC(Cn2nnc(-c3ccc(Cl)cc3Cl)n2)(C(=O)O)C1 [Example 38]
303	COc1cccc(NC(=O)N2CC(Cn3nnc(-c4cccc(F)c4)n3)(C(=O)O)C2)c1 [Example 68, 3-{[5-(3-fluorophenyl)-2H-tetrazol-2-yl]methyl}-1-{[(3-methoxyphenyl)amino]carbonyl}azetidine-3-carboxylic acid]
152	O=C(c1ccccc1)N1CC(Cn2nnc(-c3cccc(F)c3)n2)(C(=O)O)C1 [Example 47]
386	O=C(Nc1cccc(Cl)c1)N1CC(Cn2nnc(-c3cccc(F)c3)n2)(C(=O)O)C1 [Example 70]
0.423	Cc1ccc(-c2nnn(CC3(C(=O)O)CN(C(=O)c4ccc(Cl)cc4)C3)n2)cc1Cl [Example 8]
230	COc1ccc(-c2nnn(CC3(C(=O)O)CN(C(=O)c4c(F)cccc4F)C3)n2)cc1OC [Example 64]
3.51	O=C(c1ccc(Cl)cc1)N1CC(Cn2nnc(-c3cccc(Cl)c3)n2)(C(=O)O)C1 [Example 2]
453	COc1ccc(-c2nnn(CC3(C(=O)O)CN(C(=O)c4cccc(F)c4)C3)n2)cc1OC [Example 55]

Ki [nM]	Structure (SMILES)
66.8	O=C(c1ccc(F)cc1)N1CC(Cn2nnc(-c3ccc(F)c(F)c3)n2)(C(=O)O)C1 [Example 41]
14.7	O=C(c1ccc(F)cc1)N1CC(Cn2nnc(-c3ccc(OC(F)F)cc3)n2)(C(=O)O)C1 [Example 30]
0.864	O=C(c1ccc(Cl)cc1)N1CC(Cn2nnc(-c3ccc(Cl)c(Cl)c3)n2)(C(=O)O)C1 [Example 9]
1960	O=C(c1c(F)cccc1F)N1CC(Cn2nnc(Cc3ccc(C(F)(F)F)cc3)n2)(C(=O)O)C1 [Example 63]
222	COc1cc(OC)cc(C(=O)N2CC(Cn3nnc(-c4ccc(OC)c(OC)c4)n3)(C(=O)O)C2)c1 [Example 66]
10.3	CCC(=O)Nc1ccc(-c2nnn(CC3(C(=O)O)CN(C(=O)c4ccc(F)cc4)C3)n2)cc1 [Example 32]
538	CCOc1ccccc1C(=O)N1CC(Cn2nnc(-c3ccccc3)n2)(C(=O)O)C1 [Example 51]
220	O=C(c1ccc(F)cc1)N1CC(Cn2nnc(-c3ccccc3Cl)n2)(C(=O)O)C1 [Example 14]
262	O=C(c1ccc(F)cc1)N1CC(Cn2nnc(-c3c(F)cccc3F)n2)(C(=O)O)C1 [Example 42]
57.9	Cc1ccc(C(=O)N2CC(Cn3nnc(-c4c(F)cccc4F)n3)(C(=O)O)C2)cc1 [Example 59]
76.3	COc1cccc(C(=O)N2CC(Cn3nnc(-c4ccc(OC)c(OC)c4)n3)(C(=O)O)C2)c1 [Example 58]
645	O=C(c1ccc(Cl)cc1)N1CC(Cn2nnc(Cc3ccc(C(F)(F)F)cc3)n2)(C(=O)O)C1 [Example 60]
959	COc1cccc(C(=O)N2CC(Cn3nnc(Cc4c(F)cccc4Cl)n3)(C(=O)O)C2)c1 [Example 57]
446	CCOc1ccccc1C(=O)N1CC(Cn2nnc(-c3cccc(F)c3)n2)(C(=O)O)C1 [Example 52]
130	O=C(Nc1cccc(Cl)c1Cl)N1CC(Cn2nnc(-c3ccccc3)n2)(C(=O)O)C1 [Example 67, 1-{[(2,3-dichlorophenyl)amino]carbonyl}-3-[(5-phenyl-2H-tetrazol-2-yl)methyl]azetidine-3-carboxylic acid]
20	O=C(c1ccc(F)cc1)N1CC(Cn2nnc(-c3ccc(Cl)cc3)n2)(C(=O)O)C1 [Example 25]
783	CCOc1ccccc1C(=O)N1CC(Cn2nnc(Cc3c(F)cccc3Cl)n2)(C(=O)O)C1 [Example 54]
11.1	O=C(c1ccc(Cl)cc1)N1CC(Cn2nnc(-c3cccc(F)c3)n2)(C(=O)O)C1 [Example 3]
